Experimental data taken from patent publication US20230399327A1, “HIGH ACTIVITY HPK1 KINASE INHIBITOR” (ADLAI NORTYE BIOPHARMA CO., LTD., priority 2020, published 2023).

Key:
DC2.4 cells = test: DC2.4 IL-6 ELISA assay (IL-6 secretion after LPS); type: cell-based, mouse; settings: highest signal vs 0.1% DMSO, 24 h
Experimental: Test Example 4: Detection of Compound's Activating Ability to Stimulate DC2.4 Cells to Secrete Cytokine Interleukin-6 (IL-6) ([…])
The specific operation is as follows: the compound powder was dissolved in DMSO to 10 mM, 2 μl of the compound was added to 998 μl of RPMI 1640 medium (contained 10% FBS in this test), and the highest concentration point was obtained after vortexing. The compound solution was gradually diluted 3 times with 0.2% DMSO medium, with a total of 8 concentration points. That treated with RPMI 1640 medium solution containing 0.1% DMSO was used as a control. Add 10^5 DC2.4 cells to each well of Corning 96-well cell culture plate (product number: 3599), then add an equal volume of compound dilution, add RPMI 1640 medium containing 0.2% DMSO to the control group, and place the cells at 37° C. to incubate for 1 h in an incubator (Thermo Fisher Scientific, model: 3111). Subsequently, LPS was added at a final concentration of 3.2 ng/ml, and placed in a cell culture incubator at 37° C. for 24 hours. Mouse IL-6 DuoSet ELISA KIT was used to detect the IL-6 content in the cell supernatant, and the Mouse […] DuoSet ELISA detection was carried out according to the operating instructions of the kit. Data are described as the highest fold ratio of the stimulated signal of the compound to the signal of 0.1% DMSO.

mouse spleen cells = test: Spleen IL-2 ELISA assay (IL-2 secretion after Concanavalin A); type: cell-based, mouse (C57BL/6); settings: highest signal vs 0.1% DMSO, ConA, 24 h
Experimental: Test Example 3: Detection of Compound's Activating Ability to Secrete Cytokine Interleukin-2 (IL-2) from Mouse Spleen Cells (Method 3)
The specific operation is as follows: the compound powder was dissolved in DMSO to 10 mM, 2 μl of the compound was added to 998 μl of RPMI 1640 medium (contained 10% FBS in this test), and the highest concentration point was obtained after vortexing. The compound solution was gradually diluted 3 times with 0.2% DMSO medium, with a total of 8 concentration points. That treated with RPMI 1640 medium solution containing 0.1% DMSO was used as a control. Add 10^5 mouse spleen cells to each well of Corning 96-well cell culture plate (product number: 3599), then add an equal volume of compound dilution, add RPMI 1640 medium containing 0.2% DMSO to the control group, and place the cells at 37° C. to incubate for 1 h in a cell culture incubator (Thermo Fisher Scientific, model: 3111). Then add Concanavalin A at a final concentration of 0.4 μg/ml and place in a cell culture incubator at 37° C. for 24 hours. Mouse IL-2 DuoSet ELISA KIT was used to detect the IL-2 content in the cell supernatant, and the Mouse […] DuoSet ELISA detection was carried out according to the operating instructions of the kit. Data are described as the highest fold ratio of the stimulated signal of the compound to the signal of 0.1% DMSO.

HPK1 kinase = HPK1 kinase (Homo sapiens (Human), UniProt Q92918); test: HPK1 kinase activity inhibition (ADP-Glo Kinase Assay); type: biochemical; settings: HPK1, MBP substrate, ATP, 25° C. 60 min
Experimental: Test Example 1: Detection of Compound's Ability to Inhibit HPK1 Kinase Activity (Method 1)
The specific operation is as follows: configure the enzymatic reaction system buffer (10 mM MOPS, pH 7.2, 5 mM β-glycerol-phosphate, 10 mM MgCl2, 0.8 mM EDTA, 2 mM EGTA, 0.1 mM DTT); the test compound (1 mM the compound stock solution in DMSO) was diluted with buffer to the highest concentration of 60 uM (containing 6% DMSO), and the compound with a concentration of 60 μM was initially diluted 5 times with a buffer containing 6% DMSO for a total of 8 points of gradient concentration; then dilute HPK1 kinase to 30 nM in buffer. Add 2 μl of HPK1 kinase diluent to each well of a Greiner 384-well microplate (Cat. No. 784075), and add 2 μl of buffer to the control well; add 1 μl of the diluted compound to the reaction well after brief centrifugation, and add 1 μl buffer solution containing 6% DMSO to the control well; after short centrifugation, place in a 25° C. constant temperature incubator (Shanghai Yiheng Scientific Instrument Co., Ltd., Cat. No.: LRH-150) and incubate for 20 minutes. Add 3 μl of reaction substrate (10 μM MBP and 20 μM ATP dissolved in distilled water) to each well, briefly centrifuge and incubate in a constant temperature incubator at 25° C. for 60 min, and use ADP-Glo Kinase Assay Kit to detect the enzymatic reaction activity, ADP-Glo Kinase Assay Kit detection is carried out according to the operating instructions of the kit. Data are described using the half maximal inhibitory concentration IC50 of the compound.

PBMC = PBMC IL-2 ELISA assay (IL-2 secretion after anti-CD3/anti-CD28); type: cell-based, human; settings: highest signal vs 0.1% DMSO, anti-CD3/CD28, 24 h
Experimental: Test Example 5: Detection of Compound's Activating Ability to Secrete Cytokine Interleukin-2 (IL-2) from PBMC (Method 5)
The specific operation is as follows: the compound powder was dissolved in DMSO to 10 mM, 2 μl of the compound was added to 998 μl of RPMI 1640 medium (contained 10% FBS in this test), and the highest concentration point was obtained after vortexing. The compound solution was gradually diluted 3 times with 0.2% DMSO medium, with a total of 8 concentration points. That treated with RPMI 1640 medium solution containing 0.1% DMSO was used as a control. 1×10˜ 5 PBMC cells were added to each well of Corning 96-well cell culture plate (item number: 3599), and then the same volume of compound diluent was added to the control group. RPMI 1640 medium containing 0.2% DMSO was added to the control group and incubated in a 37° C. cell incubator (Thermo Fisher Scientific, model: 3111) for 1 hour. Then add Anti-human CD3 Antibody and 1 μg/ml Anti-human CD28 Antibody at a final concentration of 0.1 μg/ml, and place in a 37° C. cell culture incubator to incubate for 24 hours. The Human IL-2 DuoSet ELISA KIT was used to detect the IL-2 content in the cell supernatant, and the Human IL-2 DuoSet ELISA detection was performed according to the operating instructions of the kit. Data are described as the highest fold ratio of the stimulated signal of the compound to the signal of 0.1% DMSO.

[1] = at compound concentration 10 μM
[2] = at compound concentration 0.37 μM
[3] = at compound concentration 1.1 μM
[4] = at compound concentration 1.11 μM
[5] = at compound concentration 3.3 μM

Chain of HPK1 kinase (Q92918 whole entry): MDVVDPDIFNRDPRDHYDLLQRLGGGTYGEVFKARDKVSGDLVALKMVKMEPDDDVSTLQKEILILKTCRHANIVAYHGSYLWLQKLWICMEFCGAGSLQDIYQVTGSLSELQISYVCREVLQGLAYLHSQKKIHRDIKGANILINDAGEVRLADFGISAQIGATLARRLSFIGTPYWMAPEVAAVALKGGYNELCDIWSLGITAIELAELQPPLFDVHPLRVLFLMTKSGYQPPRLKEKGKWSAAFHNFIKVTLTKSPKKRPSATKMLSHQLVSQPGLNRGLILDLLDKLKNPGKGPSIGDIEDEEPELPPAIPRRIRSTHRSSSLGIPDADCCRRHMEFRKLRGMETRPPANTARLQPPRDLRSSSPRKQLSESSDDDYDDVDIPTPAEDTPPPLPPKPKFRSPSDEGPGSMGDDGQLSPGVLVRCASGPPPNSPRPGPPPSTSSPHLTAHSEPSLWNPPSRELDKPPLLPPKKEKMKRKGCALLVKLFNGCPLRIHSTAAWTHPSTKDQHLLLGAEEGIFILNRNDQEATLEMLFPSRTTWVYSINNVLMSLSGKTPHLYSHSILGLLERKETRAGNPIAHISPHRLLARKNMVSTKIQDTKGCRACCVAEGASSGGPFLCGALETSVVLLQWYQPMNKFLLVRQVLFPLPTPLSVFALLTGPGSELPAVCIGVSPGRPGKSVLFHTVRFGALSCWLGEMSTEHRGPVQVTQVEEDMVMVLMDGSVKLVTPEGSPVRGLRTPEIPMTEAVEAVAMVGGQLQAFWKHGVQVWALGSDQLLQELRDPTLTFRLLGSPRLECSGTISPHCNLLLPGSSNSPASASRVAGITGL

IC50 (HPK1 kinase)	Compound	% IL-2 increased (relative to DMSO control) (PBMC; [2])	% IL-6 increased (relative to DMSO control) (DC2.4 cells; [4])	further results
0.43 nM	Cn1c2c(cc(Nc3ncc4ccnc(N5CCSCC5)c4n3)c1=O)CN(CCO)CC2 [Example 84, 6-(2-hydroxyethyl)-1-methyl-3-((8-thiomorpholinopyrido[3,4-d]pyrimidin-2-yl)amino)-5,6,7,8-tetrahydro-1,6-naphthyridin-2(1H)-one]			
56.3 nM	CN1CCc2c(cc(Nc3ncc4ccnc(N5CC6CC6C5)c4n3)c(=O)n2C)C1 (centres unmarked) [Example 86, 3-((8-(3-azabicyclo[3.1.0]hex-3-yl)pyrido[3,4-d]pyrimidin-2-yl)amino)-1,6-dimethyl-5,6,7,8-tetrahydro-1,6-naphthyridin-2(1H)-one]			
19.9 nM	COCCn1c2c(cc(Nc3ncc4ccnc(N5CCC(F)(F)CC5)c4n3)c1=O)CN(C)CC2 [Example 87, 3-((8-(4,4-difluoropiperidin-1-yl)pyrido[3,4-d]pyrimidin-2-yl)amino)-1-(2-methoxyethyl)-6-methyl-5,6,7,8-tetrahydro-1,6-naphthyridin-2(1H)-one]			
< 0.1 nM	COc1nc2c(cc1Nc1ncc3ccnc(N[C@@H]4CCC[C@H]4O)c3n1)CN(C)CC2 [Example 99]			% IL-6 increased (relative to DMSO control) (DC2.4 cells; [1]): 526.00%; % IL-2 increased (relative to DMSO control) (PBMC; [3]): 236%
< 0.1 nM	COc1nc2c(cc1Nc1ncc3ccnc(N[C@@H]4CC[C@@H](O)C4)c3n1)CN(C)CC2 [Example 100]	239%	623.00%	% IL-2 increased (relative to DMSO control) (mouse spleen cells; [5]): 190%
< 0.1 nM	COc1nc2c(cc1Nc1ncc3ccnc(N[C@@H]4CCC[C@@H]4O)c3n1)CN(C)CC2 [Example 102]		553.00%	% IL-2 increased (relative to DMSO control) (mouse spleen cells; [5]): 180%
< 0.1 nM	COc1nc2c(cc1Nc1ncc3ccnc(N[C@H]4CCC[C@H]4O)c3n1)CN(C)CC2 [Example 104]	139%	341.00%	% IL-2 increased (relative to DMSO control) (mouse spleen cells; at compound concentration 0.0046 μM): 120%
< 0.1 nM	COc1nc2c(cc1Nc1ncc3ccnc(N[C@H]4CCC[C@@H]4O)c3n1)CN(C)CC2 [Example 105]		321.00%	% IL-2 increased (relative to DMSO control) (mouse spleen cells; [3]): 170%; % IL-2 increased (relative to DMSO control) (PBMC; [3]): 176%

Compound	IC50 (HPK1 kinase)	% IL-2 increased (relative to DMSO control) (PBMC; [2])	% IL-6 increased (relative to DMSO control) (DC2.4 cells; [4])	further results
3-((8-(3,3-difluoropyrrolidin-1-yl)pyrido[3,4-d]pyrimidin-2-yl)amino)-1,6-dimethyl-5,6, 7,8-tetrahydro-1,6-naphthyridin-2(1H)-one [Example 85]	25.3 nM			% IL-6 increased (relative to DMSO control) (DC2.4 cells; [1]): 305.00%; % IL-2 increased (relative to DMSO control) (mouse spleen cells; [1]): 260%; % IL-2 increased (relative to DMSO control) (PBMC; [1]): 339%
COc1nc2c(cc1Nc1ncc3ccnc(N[C@@H](CO)C(C)C)c3n1)CN(C)CC2 [Example 92]	0.23 nM	182%		% IL-6 increased (relative to DMSO control) (DC2.4 cells; [2]): 546.00%; % IL-2 increased (relative to DMSO control) (mouse spleen cells; [2]): 160%
